Data on ten molecules can be found in patent US4297346A, “Pseudopeptides used as medicaments” (priority 1976, dated 1981).

Data set [1] relates to mouse. Briefly: Action on the rectal temperature of the mouse (pGlu-His-dopamine). It counts as in vivo. How it is done: (§1) The different tests which are carried out on mice by the known techniques comprise:
the action on the rectal temperature of the mouse,
(1) Action on the rectal temperature

The subject of data set [2] is mouse. Briefly: Anti-reserpine action (interaction with reserpine). The class given is in vivo. The protocol: as §1
the anti-reserpine action,
(2) Interaction with reserpine

Data set [3] deals with mouse. The data set is described as follows: Potentialisation of the group toxicity to amphetamine. The class given is in vivo. How it is done:
as §1
the potentialisation of the group toxicity to amphetamine,
(3) Group toxicity in respect of amphetamine

Data set [4] concerns mouse. Briefly: Jumping effects with L-DOPA in mice which have received d-amphetamine. The class given is in vivo. The following applies: for jumping effects (in words): counted for 90 minutes, L-DOPA 100 mg/kg intraperitoneally. The protocol: as §1
the jerking movements with L-DOPA.
(4) Jumping effects with L-DOPA

The conditions of data set [5]: in vivo.
Data set [6] deals with mouse. The data set is described as follows: Study of the toxicity in the mouse. It counts as in vivo. How it is done:
study of the toxicity in the mouse.
(§2) A comparison of these three substances, pGlu-Amph, pGlu-His-Amph and pGlu-His-Pro-Amph, with amphetamine, has been able to be carried out as follows; for this purpose, the products were administered systematically by intraperitoneal route and by oral route, it being possible for this latter procedure to verify the generally admitted assertion of a gastric hydrolysis of peptides; in this case, the action of the amphetamine should be integrally re-established.

Data set [7] can be described thus: Potentialisation of the toxicity of amphetamine by TRH. It counts as in vivo.
For data set [8], the system named is mouse. The data set is described as follows: Action on the rectal temperature in the mouse (amphetamic pseudopeptides). It counts as in vivo. As to conditions: for dose causing a hypothermia 30 minutes after injection: small doses. How it is done: action on the rectal temperature in the mouse.
as §2
A--Action on the rectal temperature in respect of the mouse

In the next data set the test system is rat. Briefly: Induction of stereotype movements in the rat. The class given is in vivo. The protocol:
induction of stereotypes in the rat,
as §2
B--Induction of stereotype movements

The next data set relates to serotonin. As to conditions: 4-nitro-amphetamine: in 4 hours, still perceptive two weeks later; cited from earlier work.
A further data set relates to tryptophane hydroxylase. As to conditions: 4-nitro-amphetamine: in 4 hours, still perceptive two weeks later; cited from earlier work.
Setting [9] is: intraperitoneal route, 400 mg/kg.
The mark [10] stands for this setting: intraperitoneal route, 600 mg/kg.

Turning to pGlu--His--DA [pGlu-His-dopamine], the “action on the rectal temperature (in words)” value (shortened to “action … (in words)”) in the data set with mouse [1] is “highly significant hypothermia”. Further, in the data set on mouse [1] (relatively high dosage), the “time of occurrence of the hypothermia” value was 15 min. In the data set on mouse [2] (400 mg/kg intraperitoneally), the “action on the effects of reserpine (temperature, ptosis)” value was “slightly counteracts simultaneously the ptosis and the fall in temperature”; the “duration of the anti-reserpine action” value is recorded as “less than 11/2”. Moreover, the “behavioural effect in amphetamine group toxicity test (in words)” value with mouse [3] was “identical with those of dopamine”. Besides, in the data set with mouse [4], the “delay in the occurrence of the jumping effects versus L-DOPA” value is reported as “greater”, the “total number of jumps recorded versus L-DOPA” value is listed as “smaller than that with L-DOPA” and the “jumping effects (in words)” value is “the same as with L-DOPA”. The “time of onset of the antioxotremorine action” value in data set [5] was 15 min.

In the data set on mouse [6] (oral route, 1000 mg/kg), `CC(Cc1ccccc1)NC(=O)[C@@H]1CCCN1C(=O)[C@H](Cc1c[nH]cn1)NC(=O)[C@@H]1CCC(=O)N1` (stereo partly drawn) [pGlu-His-Pro-Amph, pGlu--His--Pro--Amph] yielded a mortality of 25% and a time to death of 48 h.

Regarding `NC(=O)[C@@H]1CCCN1C(=O)[C@H](Cc1cnc[nH]1)NC(=O)[C@@H]1CCC(=O)N1` [TRH, pGlu-His-Pro-NH2], the “effect on the toxicity of amphetamine” value in [7] (25 mg/kg, subcutaneous application) is listed as “potentialises the toxicity of the amphetamine”.

On to pGlu--His--Amph [pGlu-His-Amph], for which the “time of the maximum of the hypothermia” value in the data set on mouse [8] (intraperitoneal administration) was 1 h. Moreover, in the data set with mouse [8] (intraperitoneal route), the “action … (in words)” value is “always produces a hypothermia”, the “dose from which a hyperthermia appears” value is given as “above 50 mg/kg” and the “time of the maximum of the hyperthermia” value is given as “approximately 3 hours”. In addition, in the data set on mouse [8] (oral route), the “action … (in words)” value is on record as “always causes a hypothermia followed by a hyperthermia proportional to the administered dose” and the “time of the maximum of the hypothermia” value amounted to 2 h. The “duration of action in the stereotyped movements test versus amphetamine (summary)” value in the data set with rat (in vivo) is reported as “much longer lasting action”. Further, in the data set on rat (intraperitoneal route), the “dosage of contained amphetamine versus dosage of amphetamine causing an equal intensity of stereotypes” value is “three times greater” and the “induction of stereotype movements (in words)” value (“induction” below) is given as “also causes stereotypes”. For the same molecule, the “duration of the stereotype movements” value with rat (intraperitoneal route, strongest dosage) was “exceeds 7 hours”. Besides, in the data set on rat (oral route), the “duration of the stereotyped movements” value was 271/2; the “induction” value was “much greater effect as regards intensity and duration than when applied intraperitoneally”; the “time the action takes to appear” value is “about 3 hours”. For the same molecule, the “toxicity versus amphetamine (summary)” value in the data set with mouse [6] (in vivo) is listed as “less than that of amphetamine”. Moreover, in the data set on mouse [6] (setting [9]), the mortality is 10% and the “time after which agitation is established” value stood at 30 min. Moreover, in the data set with mouse [6] (setting [10]), the dead mice is listed as 6 mice out of 10 and the time to death entry is reported as “less than 30 minutes”. The time to death entry with mouse [6] (intraperitoneal route, 800 mg/kg) is given as “less than 3 min”. Besides, the “duration of stereotypic movements observed in the toxicity study” value in the data set with mouse [6] (oral route) was “more than 24 hours”. This molecule also registered a mice dead in the data set with mouse [6] (oral route, 2400 mg/kg) of 50%. Also, the immediate death result in the data set on mouse [6] (oral route, even with 2400 mg/kg) is “no longer observed”.

For `CC(N)Cc1ccccc1` (centres unmarked) [amphetamine, reference compound], in the data set on mouse [8] (intraperitoneal route), the “dose from which a hyperthermia appears” value is given as at least 4 mg/kg, the “time after which the temperature of the treated animals is again that of the controls” value was 2 h, the “time of the maximum of the hyperthermia” value is 30 min and the “dose causing a hypothermia 30 minutes after injection” value came out at 1 mg/kg. In the data set on mouse [8] (oral route), the “action … (in words)” value is given as “substantially the same as when applied intraperitoneally” and the “dose still causing a hypothermia” value is given as 4 mg/kg. In addition, in the data set with rat (intraperitoneal route), the “dosage at which the maximum amplitude of stereotype movements is achieved” value was 10 mg/kg and the “induction” value is recorded as “causes stereotype movements”. In the data set with rat (intraperitoneal route, 10 mg/kg), the “duration of the stereotype movements” value was at most 5 h. Also, the “induction” value in the data set with rat (oral route) was “less significant intensity and of slightly longer duration than by the intraperitoneal route”. In the data set on mouse [6] (intraperitoneal route), the “signs observed with toxic dosages” value is reported as “general syndrome of excitation”. In data set [7] (amphetamine alone), this molecule showed an LD50 of amphetamine of 17.8 mg/kg. In data set [7] (with TRH at 25 mg/kg by subcutaneous application), the LD50 of amphetamine is given as 5.7 mg/kg.

As to `CC(Cc1ccccc1)NC(=O)C1CCC(=O)N1` (centres unmarked) [pGlu-Amph, pGlu--Amph], in the data set on mouse [8] (intraperitoneal route), the “action … (in words)” value is given as “very close to that of amphetamine”, the “dose from which a hyperthermia appears” value is given as at least 10 mg/kg, the “period of the action compared with amphetamine” value was “the same” and the “time of the maximum of the hyperthermia” value was 60 min. Further, the “dose causing a hypothermia 30 minutes after injection” value in the data set on mouse [8] (intraperitoneal route) was 5 mg/kg. Moreover, the “action … (in words)” value with mouse [8] (oral route) is on record as “modelled on that of the amphetamine”. Moreover, in the data set on rat (intraperitoneal route), the “induction” value is “completely identical with that of amphetamine”. Also, the “effect versus that produced by the equivalent amphetamine dose” value in the data set on rat (intraperitoneal route, dose transformed into contained amphetamine) is given as “almost identical or is slightly smaller”. In addition, in the data set on rat (oral route), the “doses versus doses of amphetamine producing a similar/equivalent effect” value was “practically equivalent”. Moreover, in the data set with mouse [6] (intraperitoneal route), the “dosage causing mortality of 50% (LD50)” value is given as “about 40 mg/kg” and the “signs observed with toxic dosages” value is recorded as “general syndrome of excitation”. For the same molecule, the “mortality (in words)” value in the data set on mouse [6] (oral route, 30 mg/kg) was “does not cause any death”. Moreover, the mortality in the data set with mouse [6] (oral route, 100 mg/kg) is reported as 100%.

As for `N[C@@H](Cc1ccc(O)c(O)c1)C(=O)O` [L-DOPA], the “action … (in words)” value in the data set with mouse [1] was “hypothermia”. Further, the “action on the effects of reserpine (temperature, ptosis)” value in the data set on mouse [2] (400 mg/kg intraperitoneally) was “antagonises the effects of the reserpine on the temperature and the dropping of the eyelids”. Moreover, the “action on the effects of reserpine” value in the data set on mouse [2] (oral administration, same dosage (400 mg/kg)) is reported as “not found”. Further, the “behavioural effect in amphetamine group toxicity test (in words)” value in the data set with mouse [3] is reported as “extreme agitation”. For the same molecule, the “jumping effects (in words)” value in the data set on mouse [4] is reported as “numerous jumping actions”.

As for `CC(N)Cc1ccc(N)cc1` (centres unmarked) [4-amino-amphetamine, p-amino-amphetamine], in the data set with serotonin, the “effect on the amount of serotonin” value is on record as “increase in the amount of serotonin”. Besides, the “effect on the activity of the tryptophane hydroxylase” value with tryptophane hydroxylase is given as “not modified to any appreciable degree”.

Turning to `CC(N)Cc1ccc([N+](=O)[O-])cc1` (centres unmarked) [4-nitro-amphetamine, p-nitro-amphetamine], the “effect on the amount of serotonin” value in the data set with serotonin is “depletion of serotonin”. Moreover, the “effect on the activity of the tryptophane hydroxylase” value with tryptophane hydroxylase is “decrease in the activity of the tryptophane hydroxylase”.

In the case of `NCCc1ccc(O)c(O)c1` [Dopamine, dopamine], in the data set with mouse [1], the “action … (in words)” value is “hypothermal action, but the amplitude thereof is much smaller”. In addition, the “effect on the reserpine fall in temperature” value in the data set on mouse [2] is “small effect”. Moreover, the “effect on reserpine ptosis” value with mouse [2] (effect not lasting) was “completely counteracts ptosis”. In addition, the “time after the injection of amphetamine at which the effect is developed” value in the data set on mouse [3] was “about 20 minutes”. Also, in the data set on mouse [4], the “jumping effects (in words)” value is reported as “no jumping effects are produced”.

One may read the mortality as the percentage killed. Read a high mortality as a strong lethal effect.
